Test results: US10940188B2, “Compounds and methods for treatment and prevention of Flavivirus infection” (priority 2016, dated 2021)
Where “and” joins values, the source holds several entries; their conditions need not be identical. Equal entries are not always repeated. Where two headings read alike, the source gives them in different places.

What was measured:
[1] = system: ZIKV-induced cell death in hNPCs; assay: ATP cell viability assay for ZIKV-induced cell death, hNPCs; assay type: cell-based, human; conditions: for IC50: Homo sapiens
Experimental: (§1) The reagent was reconstituted and prepared as described by the manufacturer. In order to measure the cell death caused by ZIKV infection, cells were cultured for 16 hours at 37° C. with 5% CO2 in assay plates, followed by the addition of ZIKV solution and incubation at 37° C. with 5% CO2 for 72 hours. ATPlite, the ATP monitoring reagent, was then added to the assay plates and they were incubated for 15 minutes. The resulting luminescence was measured using the ViewLux plate reader (Perkin Elmer). Data were normalized using the wells without cells as a control for 100% cell killing, and cell-containing wells without ZIKV infection were used as full cell viability (0% cell killing).
Human NPCs were seeded onto PDL coated 1536-well assay plates at 250 cells per 3 μl/well and incubated at 37° C. in 5% CO2 for 16 hours. Test compounds dissolved in DMSO were transferred to assay plates at a volume of 23 nl/well by an automated pintool workstation (Wako Automation, San Diego, Calif.). Compounds were incubated with cells for 30 minutes at 37° C. in 5% CO2, immediately followed by the addition of 2 μl/well of ZIKV. Incubation time of compound-treated cells with ZIKV varied based on assay format. Experiments measuring virus-induced caspase 3/7 activity required a 6 hour incubation of ZIKV in the presence compounds at 37° C. in 5% CO2. Following this incubation, 3.5 μl/well of caspase 3/7 reagent mixture was added to assay plates. The plates were incubated for 30 minutes at room temperature, and the resultant luminescence signal was measured using a ViewLux plate reader (Perkin Elmer). Experiments measuring virus-induced cell death required a 72-hour incubation of ZIKV in the presence of compounds at 37° C. in 5% CO2. Following this incubation, 3.5 μl/well of ATP content detection reagent was added to assay plates, incubated for 30 minutes at the room temperature, and the resultant luminescence signal was measured in a ViewLux plate reader.
as §1, with “The ATPlite luminescence assay system assay kit (PerkinElmer) was used to determine cell viability. The reagent” for “The reagent”, “by the manufacture. In order” for “by the manufacturer. In order”, “followed by addition of” for “followed by the addition of”, “plates and incubated for” for “plates and they were incubated for”, “Elmer). Data was normalized using” for “Elmer). Data were normalized using”
Human NPCs were seeded onto PDL coated 1536-well assay plates at 250 cells per 3 μl/well and incubated at 37° C. in 5% CO2 for 16 hours. Test compounds dissolved in DMSO were transferred to assay plates at a volume of 23 nl/well by an automated pintool workstation (Wako Automation, San Diego, Calif.). Compounds were incubated with cells for 30 minutes at 37° C. in 5% CO2, immediately followed by the addition of 2 μl/well of ZIKV. Incubation time of compound-treated cells with ZIKV varied based on assay format. Experiments measuring virus induced caspase 3/7 activity required a 6 hour incubation of ZIKV in the presence compounds at 37° C. in 5% CO2. Following this incubation, 3 μl/well of caspase 3/7 reagent mixture was added to assay plates, incubated for 30 minute at room temperature, and the resultant luminescence signal was measured using a ViewLux plate reader (Perkin Elmer). Experiments measuring the virus induced cell death required a 72 hour incubation of ZIKV in the presence of compounds at 37° C. in 5% CO2. Following this incubation, 3 μl/well of ATP content detection reagent was added to assay plates, incubated for 30 minute at room temperature, and the resultant luminescence signal was measured in a ViewLux plate reader.

[2] = system: ZIKV-induced caspase 3/7 activity in hNPCs; assay: Caspase 3/7 activity assay, ZIKV-infected hNPCs; assay type: cell-based; conditions: for IC50: read-out: Caspase 3 (IC50, uM) NPCs; for Emax: read-out: Caspase 3 (efficacy, %) NPCs
Procedure, shortened: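 Human NPCs, SNB-19 cells or astrocytes seeded 16 h, compound added 30 min before ZIKV, then 6 h infection at 37 °C. Caspase-Glo 3/7 luminescence after 30 min at room temperature, normalized to uninfected cells (0%) and ZIKV-infected cells (100%).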

[3] = Homo sapiens, ZIKV-infected hNPCs
[4] = ZIKV-infected hNPCs, read-out: Cell viability (IC50, uM) NPCs

Molecule	Cell viability (efficacy, %) NPCs ([1]; ZIKV-infected hNPCs) [%]	IC50 [2, 3] [µM]	Emax [2, 3] [%]	other results
Cc1ccc(O)c(-n2nc3ccccc3n2)c1 [2-(2H-Benzotriazol-2-yl)-4-methylphenol]	0.0	4.89	77.6	
Nc1nc2ccc([N+](=O)[O-])cc2s1 [2-Amino-6-nitrobenzothiazole]	0.0	56.2	57.1	
CCOCCOC(=O)C=Cc1ccc(OC)cc1 [2-Ethoxylethyl-p-methoxycinnamate]	0.0	18.4	56	
O=C(O)c1cc([N+](=O)[O-])ccc1NCCCc1ccccc1 [5-Nitro-2-(3-phenylpropylamino)benzoic acid]	0.0	8.69	59.8	
O=C1NC(=O)/C(=C/c2ccc(-c3ccc(F)cc3O)o2)S1 [AS-252424]	0.0			Caspase 3 (efficacy, %) NPCs ([2]; ZIKV-infected hNPCs): 52.3%; IC50 ([2]; ZIKV-infected hNPCs): 1.64 µM
O=C1c2ccccc2C(=O)c2c1ccc(O)c2O [Alizarin]	0.0	21.8	58.5	
COc1ccc(-c2cc(=S)ss2)cc1 [Anethole trithione]	0.0	13	70.3	
N#CC1(c2ccc(NC(=O)c3cccnc3NCc3ccncc3)cc2)CCCC1 [Apatinib]	0.0		0	
O=C(Nc1ccc(C(=O)O)c(O)c1)c1ccccc1 [Benzoylpas]	0.0	4.89	85.4	
O=C(OCc1ccccc1)c1ccc(O)cc1 [Benzylparaben]	0.0	15.5	56	
O=C1NC(=O)C(=Cc2ccc(-c3ccc(F)cc3)o2)S1 [CAY10505]	0.0			Caspase 3 (efficacy, %) NPCs ([2]; ZIKV-infected hNPCs): 83.5%; IC50 ([2]; ZIKV-infected hNPCs): 10.9 µM
CN(C)CCCSc1ccccc1NC(=O)/C=C/c1ccccc1 [Cinanserin]	0.0	17.3	80.4	
CC(=O)Oc1cccc2c1C(=O)c1c(OC(C)=O)cc(C(=O)O)cc1C2=O [Diacerein]	0.0	15.5	56.5	
O=C(Oc1ccccc1)c1cccc(C(=O)Oc2ccccc2)c1 [Diphenyl isophthalate]	0.0	4.47	89.4	
Cc1cc(O)c2c(c1)C(=O)c1cc(O)cc(O)c1C2=O [Emodin]	0.0	2.59	82.1	
C[C@H](NC(=O)C(=O)Nc1ccccc1C(C)(C)C)C(=O)N[C@@H](CC(=O)O)C(=O)COc1c(F)c(F)cc(F)c1F [Emricasan]	54.4	0.37	85.3	IC50 [1, 4]: 3.88 µM; IC50 ([1]; following ZIKV infection, read-out: IC50 (μM) for improving cell viability, hNPCs): 3.88 µM
O=C(O)c1ccccc1NCCc1ccccc1 [Enfenamic acid]	58.5	21.8	47.1	IC50 [1, 4]: 7.74 µM
O=S(=O)(O)c1ccc2[nH]c(-c3ccccc3)nc2c1 [Ensulizole]	0.0			IC50 ([2]; Homo sapiens): 1.38 µM; Emax ([2]; Homo sapiens): 80.6%

Molecule	Cell viability (efficacy, %) NPCs ([1]; ZIKV-infected hNPCs) [%]	IC50 [2, 3] [µM]	Emax [2, 3] [%]	other results
c1ccc(CCNc2nc(-c3ccccc3)cs2)cc1 [Fanetizole]	0.0	14.6	81.8	
O=C(O)CCC(=O)c1ccc(-c2ccccc2)cc1 [Fenbufen]	0.0	19.5	72.5	
CN1CC(=O)NC1=NC(=O)Nc1cccc(Cl)c1 [Fenobam]	0.0			Caspase 3 (efficacy, %) NPCs ([2]; ZIKV-infected hNPCs): 108%; IC50 ([2]; ZIKV-infected hNPCs): 5.48 µM
O=C(O)c1ccccc1Nc1cccc(C(F)(F)F)c1 [Flufenamic acid]	0.0	17.3	68.1	
C/C1=C2/[N-][C@H]([C@H](CC(N)=O)[C@@]2(C)CCC(=O)NC[C@@H](C)OP(=O)([O-])O[C@H]2[C@@H](O)[C@@H](n3cnc4cc(C)c(C)cc43)O[C@@H]2CO)[C@]2(C)N=C(/C(C)=C3N=C(/C=C4N=C1[C@@H](CCC(N)=O)C\4(C)C)[C@@H](CCC(N)=O)[C@]\3(C)CC(N)=O)[C@@H](CCC(N)=O)[C@]2(C)CC(N)=O.[Co+3].[OH-] [Hydroxocobalamin]	0.0			Caspase 3 (efficacy, %) NPCs ([2]; ZIKV-infected hNPCs): 67.4%; IC50 ([2]; ZIKV-infected hNPCs): 0.87 µM
CCC(C(=O)O)c1ccc(N2Cc3ccccc3C2=O)cc1 (centres unmarked) [Indobufen]	0.0	6.15	81.3	
O=C(c1ccccc1)c1ccc2n1CCC2C(=O)O (centres unmarked) [Ketorolac tromethamine]	0.0	10.3	75	
Cc1cccc(C#Cc2ccccc2)n1 [MPEP, 2-Methyl-6-(phenylethynyl)pyridine]	0.0	4.11	96.1	
O=C(Nc1ccc([N+](=O)[O-])cc1Cl)c1cc(Cl)ccc1O [Niclosamide]		1.84	87.5	
CC(=O)Nc1ccc([C@H](C)C(=O)Nc2ncc(C(C)C)s2)cc1 [PHA-690509]				Caspase 3 (efficacy, %) NPCs ([2]; ZIKV-infected hNPCs): 73.0%; IC50 ([2]; ZIKV-infected hNPCs): 19.5 µM
CN1CCN(c2cc3c(nn2)Oc2ccccc2N3C)CC1 [Pipofezine]	0.0	12	47.7	
Cc1cccc(/C=C/c2ccccc2)n1 [SIB 1893]	0.0			Caspase 3 (efficacy, %) NPCs ([2]; ZIKV-infected hNPCs): 95.2%; IC50 ([2]; ZIKV-infected hNPCs): 8.69 µM
CC(C(=O)O)c1ccc(C(=O)c2cccs2)cc1 (centres unmarked) [Suprofen]	0.0	15.5	59.1	
c1ccc2[nH]c(-c3cscn3)nc2c1 [Thiabendazole]	0.0	9.75	83.4	
CC(C(=O)O)c1ccc(C(=O)c2ccccc2)s1 (centres unmarked) [Tiaprofenic acid]	0.0	8.69	86.7	
COc1cccc(-c2ccc(NC(=O)C3=C(C(=O)O)CCC3)c(F)c2)c1 [Vidofludimus]	0.0	2.45	87.8	
Flurbiprofen axetil	0.0			Caspase 3 (efficacy, %) NPCs ([2]; ZIKV-infected hNPCs): 0.0%
Vitamin B12	0.0			Caspase 3 (efficacy, %) NPCs ([2]; ZIKV-infected hNPCs): 94.7% and 59.1%; IC50 ([2]; ZIKV-infected hNPCs): 6.9 µM and 11.3 µM
